Results reported in the NIST ThermoML archive (doi:10.1016/j.fluid.2005.03.030).

Assay: xn = mol fraction of the nth substance listed
Conditions: Liquid, Falling body viscometer

COCCOCCOCCOCCOC [2,5,8,11,14-pentaoxapentadecane] + FCC(F)(F)F
viscosity [mPa·s]
Conditions | 10000 kPa | 20000 kPa | 30000 kPa | 40000 kPa | 50000 kPa | 60000 kPa | 70000 kPa | 80000 kPa | 90000 kPa | 100000 kPa
293.15 K, x2 = 0.2769 | 3.132 | 3.378 | 3.669 | 3.992 | 4.341 | 4.71 | 5.095 | 5.495 | 5.907 | 6.329
293.15 K, x2 = 0.4433 | 2.335 | 2.537 | 2.765 | 3.014 | 3.282 | 3.568 | 3.871 | 4.191 | 4.527 | 4.877
293.15 K, x2 = 0.6333 | 1.514 | 1.679 | 1.851 | 2.031 | 2.219 | 2.414 | 2.617 | 2.827 | 3.045 | 3.269
293.15 K, x2 = 0.8797 | 0.557 | 0.613 | 0.671 | 0.733 | 0.796 | 0.863 | 0.932 | 1.003 | 1.077 | 1.154
313.15 K, x2 = 0.2769 | 2.001 | 2.197 | 2.395 | 2.601 | 2.816 | 3.043 | 3.282 | 3.535 | 3.803 | 4.088
313.15 K, x2 = 0.4433 | 1.527 | 1.674 | 1.824 | 1.978 | 2.14 | 2.31 | 2.49 | 2.68 | 2.881 | 3.094
313.15 K, x2 = 0.6333 | 1.046 | 1.151 | 1.26 | 1.374 | 1.493 | 1.616 | 1.745 | 1.878 | 2.016 | 2.159
313.15 K, x2 = 0.8797 | 0.412 | 0.46 | 0.506 | 0.553 | 0.6 | 0.647 | 0.695 | 0.744 | 0.794 | 0.845
333.15 K, x2 = 0.2769 | 1.406 | 1.533 | 1.664 | 1.8 | 1.941 | 2.086 | 2.236 | 2.391 | 2.549 | 2.712
333.15 K, x2 = 0.4433 | 1.097 | 1.195 | 1.297 | 1.402 | 1.512 | 1.624 | 1.741 | 1.861 | 1.984 | 2.111
333.15 K, x2 = 0.6333 | 0.774 | 0.845 | 0.922 | 1.003 | 1.087 | 1.173 | 1.26 | 1.349 | 1.438 | 1.529
333.15 K, x2 = 0.8797 | 0.321 | 0.364 | 0.405 | 0.444 | 0.483 | 0.522 | 0.561 | 0.6 | 0.64 | 0.681
353.15 K, x2 = 0.2769 | 1.038 | 1.133 | 1.229 | 1.328 | 1.431 | 1.539 | 1.653 | 1.773 | 1.9 | 2.035
353.15 K, x2 = 0.4433 | 0.834 | 0.908 | 0.984 | 1.064 | 1.147 | 1.233 | 1.323 | 1.415 | 1.51 | 1.609
353.15 K, x2 = 0.6333 | 0.609 | 0.665 | 0.725 | 0.788 | 0.854 | 0.921 | 0.99 | 1.061 | 1.132 | 1.205
353.15 K, x2 = 0.8797 | 0.256 | 0.299 | 0.336 | 0.37 | 0.404 | 0.436 | 0.469 | 0.501 | 0.533 | 0.565
373.15 K, x2 = 0.2769 | 0.832 | 0.907 | 0.986 | 1.069 | 1.156 | 1.247 | 1.342 | 1.441 | 1.545 | 1.654
373.15 K, x2 = 0.4433 | 0.662 | 0.72 | 0.783 | 0.85 | 0.921 | 0.994 | 1.069 | 1.147 | 1.226 | 1.307
373.15 K, x2 = 0.6333 | 0.471 | 0.524 | 0.577 | 0.631 | 0.685 | 0.739 | 0.794 | 0.849 | 0.904 | 0.96
373.15 K, x2 = 0.8797 | 0.195 | 0.234 | 0.268 | 0.3 | 0.33 | 0.36 | 0.39 | 0.419 | 0.448 | 0.478
